pIC50: −log10 of the molar value.
Test: Inhibition of lipid droplets accumulation in mouse peritoneal macrophages as a model of macrophage-derived foam-cell formation
Assay type: functional

Compound | pIC50
C[C@@H](OCc1ccccc1)C1NC(=O)[C@@H](NC(=O)OC(C)(C)C)Cc2ccc(O)c(c2)Oc2ccc(cc2)C[C@@H](C(=O)O)NC1=O (stereo partly specified) | 5.49
COC(=O)[C@@H]1Cc2ccc(cc2)Oc2cc(ccc2O)C[C@H](N)C(=O)NC([C@@H](C)OCc2ccccc2)C(=O)N1 (stereo partly specified) | < 4.92
C[C@@H](O)C1NC(=O)[C@@H](NC(=O)OC(C)(C)C)Cc2ccc(O)c(c2)Oc2ccc(cc2)C[C@@H](C(=O)O)NC1=O (stereo partly specified) | < 4.92
C[C@@H](O)[C@@H]1NC(=O)[C@@H](N)Cc2ccc(O)c(c2)Oc2ccc(cc2)C[C@@H](C(=O)O)NC1=O | < 4.65
COC(=O)[C@@H]1Cc2ccc(cc2)Oc2cc(ccc2O)C[C@H](N)C(=O)N[C@@H]([C@@H](C)O)C(=O)N1 | < 4.87
C[C@@H](OCc1ccccc1)C1NC(=O)[C@@H](NC(=O)Oc2ccccc2)Cc2ccc(O)c(c2)Oc2ccc(cc2)C[C@@H](C(=O)O)NC1=O (stereo partly specified) | 5.51

From ChEMBL document CHEMBL1141041, “Discovery of halogenated eurypamide B analogues as inhibitors of lipid droplet accumulation in macrophages” (Bioorg Med Chem Lett, 2005)
